Patent US20040127566A1, “Retinoid hepatitis therapy” (priority 2004, published 2004)

Columns and labels:
hepatitis-C = experiment: Free ATRA (oral) in a patient positive for hepatitis-C (Example 2)
hepatitis-A = experiment: Free ATRA (oral) in a patient positive for hepatitis-A (Example 3)
[1] = blood, one month subsequent to the 3-week point
[2] = four months after beginning use of ATRA
[3] = one month subsequent to the 3-week point

CC1=C(/C=C/C(C)=C/C=C/C(C)=C/C(=O)O)C(C)(C)CCC1 [free ATRA, all-trans retinoic acid]
viral load (hepatitis-C; [1]): < 11000 copies/ml | PCR status (hepatitis-C; [2]): negative | blood chemistry as to hepatitis C (SPGT and SGOT, bilirubin, alkaline phosphatase) (hepatitis-C; [3]): normal | viral load (hepatitis-A; [1]): < 1,000 copies/ml | PCR status (hepatitis-A; [2]): negative | blood chemistry as to hepatitis A (SPGT and SGOT, bilirubin, alkaline phosphatase) (hepatitis-A; [3]): normal
